Assay in data set [1]: not given
The source holds these as a separate data set.

Assay in data set [2]: not given
This is another data set of the same source.

Assay in data set [3]: not given
The source holds these as a separate data set.

Broadly, the pKa is the negative logarithm of the acid dissociation constant. In the case of `O=[N+]([O-])c1ccc(O)cc1` [P-NITROPHENOL], the “log Kp” value is -5.08 cm/s. Besides, the “log Kp” value in the data set listed under Homo sapiens (in vivo) is -5.81 cm/s. Also, the “log Pe” value in data set [1] is given as -5.24 cm/s. For the same compound, the “log Pe” value in data set [2] is recorded as -4.09 cm/s. Moreover, the “log Pe” value in data set [3] is on record as -4.33 cm/s. In the data set “physchem”, this compound came in with a pKa of 6.9.
For the compound `Cc1cc(=O)n(-c2ccccc2)n1C` [ANTIPYRINE], the “log Kp” value in the data set listed under Homo sapiens (in vivo) is listed as -7.74 cm/s. In addition, the figures for the “log Pe” value in data set [2] and in data set [3] were -5.4 cm/s and -6.2 cm/s, respectively.
As to `c1ccc2cnccc2c1` [ISOQUINOLINE], the “log Kp” value in the data set listed under Homo sapiens (in vivo) is on record as -5.33 cm/s. The “log Pe” value in data set [3] is reported as -4.05 cm/s. The same compound came in with a pKa in the data set “physchem” of 5.37.
For `Nc1cc([N+](=O)[O-])ccc1O` [2-AMINO-4-NITROPHENOL], the “log Kp” value in the data set filed under Homo sapiens (in vivo) is listed as -6.62 cm/s. The “log Pe” value is -3.96 cm/s in data set [2] and -4.84 cm/s in data set [3]. This compound also showed a pKa in the data set “physchem” of 6.7.
Turning to `O=C(O)c1ccccc1O` [SALICYLIC ACID], the “log Kp” value (not told) is -4.7 cm/s. Besides, the “log Pe” value in data set [1] (not told) is recorded as -4.74 cm/s; in data set [2] (not told), -3.98 cm/s; in data set [3] (not told) it was -4.16 cm/s.
With `CCC1(c2ccccc2)C(=O)NC(=O)NC1=O` [PHENOBARBITAL], in the data set listed under Homo sapiens, the “log Kp” value is -6.9 cm/s. For the same compound, the “log Pe” value is -4.16 cm/s in data set [2] and -5.15 cm/s in data set [3]. In addition, the pKa in “physchem” worked out at 7.49.
On to `Oc1ccc(Cl)cc1` [PARACHLOROPHENOL], for which, in the data set listed under Homo sapiens (in vivo), the “log Kp” value is listed as -5 cm/s. For the same compound, in data set [3], the “log Pe” value was -4.1 cm/s. Moreover, the pKa in “physchem” is 9.26.
Take `COc1ccc2c(c1)c(CC(=O)O)c(C)n2C(=O)c1ccc(Cl)cc1` [INDOMETHACIN]: in the data set listed under Homo sapiens, the “log Kp” value is -5.39 cm/s. The “log Pe” value in data set [3] is recorded as -4.2 cm/s.
Consider `O=C(OCc1ccccc1)c1cccnc1` [BENZYL NICOTINATE], for which, in the data set filed under Homo sapiens (in vivo), the “log Kp” value is recorded as -5.35 cm/s. The “log Pe” value in data set [1] is -4.18 cm/s; in data set [2] it was -4.35 cm/s; in data set [3], -4.26 cm/s. In addition, the pKa in “physchem” was found to be 3.94.
As to `Oc1cccc(O)c1` [RESORCINOL], the “log Pe” value was -4.66 cm/s in data set [2] and -5.62 cm/s in data set [3]. Moreover, the pKa in “physchem” stood at 9.21.
For `Oc1ccccc1` [PHENOL], the “log Kp” value in the data set filed under Homo sapiens is -5.54 cm/s and the “log Kp” value (not told) is reported as -4.45 cm/s. Moreover, the figures for the “log Pe” value in data set [1] (not told), in data set [2] (not told) and in data set [3] (not told) were -4.53 cm/s, -4 cm/s and -4.14 cm/s, respectively.
On to `CC(=O)[C@H]1CC[C@H]2[C@@H]3CCC4=CC(=O)CC[C@]4(C)[C@H]3CC[C@]12C` [PROGESTERONE], for which, in the data set listed under Homo sapiens (in vivo), the “log Kp” value is on record as -5.08 cm/s. Besides, the “log Pe” value in data set [1] (not told) is on record as -4.31 cm/s; in data set [2] (not told) it was -4.63 cm/s; in data set [3] (not told), -4.56 cm/s.
For `CCNc1nc(Cl)nc(NC(C)C)n1` [ATRAZINE], the “log Kp” value in the data set listed under Homo sapiens (in vivo) was -5.56 cm/s. The “log Pe” value in data set [3] is -4.21 cm/s. Moreover, in the data set “physchem”, the pKa is < 2.
Take `O=C(O)Cc1ccccc1Nc1c(Cl)cccc1Cl` [DICLOFENAC]: the “log Kp” value in the data set listed under Homo sapiens (in vivo) was -5.3 cm/s. In addition, the “log Pe” value in data set [3] is listed as -4.33 cm/s.
For the compound `Oc1ccc2ccccc2c1` [BETANAPHTHOL], the “log Kp” value in the data set filed under Homo sapiens is -5.11 cm/s and the “log Kp” value (not told) is reported as -4.08 cm/s. Also, the entries for the “log Pe” value in data set [1] (not told), in data set [2] (not told) and in data set [3] (not told) were -4.35 cm/s, -4.41 cm/s and -4.19 cm/s, respectively. The same compound showed a pKa in “physchem” of 9.4.
Turning to `CN1C(C(=O)Nc2ccccn2)=C(O)c2ccccc2S1(=O)=O` [PIROXICAM], in the data set listed under Homo sapiens (in vivo), the “log Kp” value was -6.02 cm/s. Also, in data set [3], the “log Pe” value is listed as -4.35 cm/s.
On to `Cc1ccc(C(C)C)c(O)c1` [THYMOL], for which the “log Kp” value was -3.68 cm/s. Further, in the data set filed under Homo sapiens (in vivo), the “log Kp” value is listed as -4.83 cm/s. The “log Pe” value in data set [1] was -4.11 cm/s. The “log Pe” value in data set [2] is on record as -4.23 cm/s. For the same compound, in data set [3], the “log Pe” value was -4.34 cm/s. The compound further registered a pKa in the data set “physchem” of 10.6.
Take `CC(C(=O)O)c1cccc(C(=O)c2ccccc2)c1` (stereo unspecified) [KETOPROFEN]: the “log Kp” value in the data set listed under Homo sapiens (in vivo) is given as -4.7 cm/s.
Consider `CN[C@@H](C)[C@H](O)c1ccccc1` [EPHEDRINE], for which the “log Kp” value in the data set listed under Homo sapiens (in vivo) was -5.75 cm/s. Moreover, the “log Pe” value in data set [3] is reported as -4.82 cm/s.
Turning to `CN1CCC[C@H]1c1cccnc1` [NICOTINE], the “log Kp” value in the data set listed under Homo sapiens is given as -5.26 cm/s and the “log Kp” value (not told) is -4.29 cm/s. Besides, the results for the “log Pe” value in data set [1] (not told), in data set [2] (not told) and in data set [3] (not told) were -4.86 cm/s, -4.23 cm/s and -4.58 cm/s, respectively. The compound also had a pKa in “physchem” of 8.08.
As for `Cn1c(=O)c2c(ncn2C)n(C)c1=O` [CAFFEINE], in the data set listed under Homo sapiens, the “log Kp” value was -7.56 cm/s.
As for `COC(=O)c1cccnc1` [METHYL NICOTINATE], in the data set filed under Homo sapiens (in vivo), the “log Kp” value is -6.04 cm/s. In addition, the “log Pe” value in data set [3] is recorded as -4.32 cm/s. The pKa in “physchem” worked out at 3.84.
The like results for `CCc1ccc(O)cc1` were, in that order, -5.01 cm/s, -4.05 cm/s and 10.2.

The values above are taken from ChEMBL document CHEMBL1138041, “Parallel artificial membrane permeability assay: a new membrane for the fast prediction of passive human skin permeability” (J Med Chem, 2006).
